In patent publication US20240082416A1, “AMATOXIN ANALOGS AND USES THEREOF” (THE UNIVERSITY OF BRITISH COLUMBIA, priority 2020, published 2024) one finds viability data, which are given here for four molecules.

By viability is commonly meant the share of living cells, or the viability signal relative to a control.

Starred links: 1 amine or outer side, 2 acyl side, 3 side chain; linkers in the order of their positions; H or OH if unused. Positions of bridges follow the written chain, without caps; N, C: chain ends. Non-standard residues stand in square brackets, D forms with d. Residues, ends and D or L forms follow the SMILES beside them. Trp(2-yl) = O=C([C@H](Cc1c([*:3])[nH]c2ccccc12)N[*:1])[*:2]; Pro(trans-4-guanidino) = N=C(N)N[C@H]1CN[C@H](C(=O)O)C1; Pro(4R-SH) = O=C([C@@H]1C[C@@H](S[*:3])CN1[*:1])[*:2]; Ile(4R-OH,5-OH) = C[C@H]([C@H](N)C(=O)O)[C@@H](O)CO; X1 = N#C[C@@H]1C[C@@H](C(=O)[*:2])N([*:1])C1; Pro(4R-NH2) = N[C@H]1CN[C@H](C(=O)O)C1

This data set is described as follows: Cell viability assay (BrdU incorporation) on HEK293-OATP1B3 cells. It is filed as cell-based, human. To be noted: human, HEK293 cells overexpressing OATP1B3 (HEK293-OATP1B3); highest used concentration of 1 μM; HEK293-OATP1B3 cells. Here is the method: . HEK293 and HEK-OATP1B3 cells were plated at 2.5×10^3 cells/well in a 1:1 mixture of Ham's F12 with DMEM containing 10% charcoal-stripped fetal calf serum (FCS) onto poly-D-lysine-coated 96-well plates and grown for 24 hours. Subsequently, cells were incubated with amanitin analogs at 8 different concentrations (1×10^−6 M to 1.28×10^−11 M, serial 1:5 dilutions). Following 96 h of drug exposure, cell viability was determined by a BrdU incorporation assay (Cell Proliferation ELISA, BrdU, Roche) and chemiluminescence was measured using a FLUOstar Optima plate reader (BMG LABtech). Data analysis was performed with GraphPad Prism 8 (GraphPad Software, Inc., La Jolla, CA) software to plot curve fits.
(In general: Dividing cells build labelled thymidine or BrdU into new DNA.)
As for `CC[C@H](C)[C@@H]1NC(=O)CNC(=O)[C@@H]2Cc3c([nH]c4ccccc34)SC[C@H](NC(=O)CNC1=O)C(=O)N[C@@H](CC(N)=O)C(=O)N1C[C@H](NC(=N)N)C[C@H]1C(=O)N[C@@H]([C@@H](C)[C@@H](O)CO)C(=O)N2` [Compound 7, Gdn-Pro-amanitin] (cyclo(CN[Pro(trans-4-guanidino)][Ile(4R-OH,5-OH)][Trp(2-yl)]GIG); thioether 1-5), the viability at 96 h, 1 µM was 86%.

Consider `CC[C@H](C)[C@@H]1NC(=O)CNC(=O)[C@@H]2Cc3c([nH]c4ccccc34)SC[C@H](NC(=O)CNC1=O)C(=O)N[C@@H](CC(N)=O)C(=O)N1C[C@H](S)C[C@H]1C(=O)N[C@@H]([C@@H](C)[C@@H](O)CO)C(=O)N2` [Compound 5, SH-Pro-amanitin] (cyclo(CN[Pro(4R-SH)][Ile(4R-OH,5-OH)][Trp(2-yl)]GIG); thioether 1-5), for which the viability at 96 h, 1 µM was determined as 50%.

`CC[C@H](C)[C@@H]1NC(=O)CNC(=O)[C@@H]2Cc3c([nH]c4ccccc34)SC[C@H](NC(=O)CNC1=O)C(=O)N[C@@H](CC(N)=O)C(=O)N1C[C@H](C#N)C[C@H]1C(=O)N[C@@H]([C@@H](C)[C@@H](O)CO)C(=O)N2` [Compound 4, CN-Pro-amanitin] (cyclo(CN[X1][Ile(4R-OH,5-OH)][Trp(2-yl)]GIG); thioether 1-5) yielded a viability at 96 h, 1 µM of 43%.

Regarding `CC[C@H](C)[C@@H]1NC(=O)CNC(=O)[C@@H]2Cc3c([nH]c4ccccc34)SC[C@H](NC(=O)CNC1=O)C(=O)N[C@@H](CC(N)=O)C(=O)N1C[C@H](N)C[C@H]1C(=O)N[C@@H]([C@@H](C)[C@@H](O)CO)C(=O)N2` [Compound 6, NH2-Pro-amanitin] (cyclo(CN[Pro(4R-NH2)][Ile(4R-OH,5-OH)][Trp(2-yl)]GIG); thioether 1-5), the viability at 96 h, 1 µM is 33%.
